Reference: PMC3929365, “Benzimidazoisoquinolines: A New Class of Rapidly Metabolized Aryl Hydrocarbon Receptor (AhR) Ligands that Induce AhR-Dependent Tregs and Prevent Murine Graft-Versus-Host Disease” (PLoS ONE, 2014)

What was measured:
AhR [1] = experiment: Electrophoretic mobility shift assay, binding of AhR to XRE; assay type: biochemical, mouse; conditions: 10 nM, 2 h, Hepa1c1c7 whole cell lysate
Procedure: Figure 1 10-Cl-BBQ is a potent AhR ligand. A) Structure of 10-Cl-BBQ. […] C) Hepa-1 cells expressing endogenous AhR were transfected with an AhR-regulated luciferase reporter gene (xenobiotic responsive element (XRE)-MMTVpromoter-Luc) and the reporter gene activity was measured after 12 h of treatment with 1 nM TCDD or the indicated concentrations of 10-Cl-BBQ. D) Alteration in proteolytic pattern of AhR by 10-Cl-BBQ. Whole cell lysate (45 µg of protein) from mouse hepatoma Hepa1c1c7 cells was incubated with 100 nM 10-Cl-BBQ or 0.1% DMSO for 1 h at RT and proteolyzed by 1 µg/ml subtilisin for 1, 2, 4, and 8 min at RT. Proteolytic cleavage products of AhR were analyzed by immunoblot. E) Electrophoretic mobility shift assay showing the ligand-stimulated binding of AhR to XRE. Whole cell lysate (18 µg of protein) from mouse hepatoma Hepa1c1c7 cells was incubated with 10 nM 10-Cl-BBQ or 0.1% DMSO for 2 h at room temperature and ^32P-labeled oligonucleotide containing XRE for 20 min at room temperature. The samples were electrophoresed on a native polyacrylamide gel and the signal was visualized by Phosphor Imager. Unlabeled competitor XRE or antibody (Ab) against AhR or Arnt was co-incubated with ^32P-labeled oligonucleotide.

CD4+ T cells = experiment: Donor CD4+ T cell proliferation in vivo (CFSE dilution) during the GVH response; set-up: species or system B6D2F1 host mice; conditions: 10 mg/kg/d i.p. for two days
Procedure: A. Splenocytes from C57Bl/6 mice were labeled with CFSE and activated in vitro with anti-CD3 and anti-CD28 in the presence of 100 nM 10-Cl-BBQ or DMSO for 72 h. B. C57Bl/6 donor T cells were labeled with CFSE and injected into B6D2F1 host mice to initiate the GVH response. Host mice (n = 5 per group) were treated with vehicle or 10-Cl-BBQ i.p. (10 mg/kg/d) for two days. Donor cells were identified by gating on CD4^+CFSE^+ cells. […] (TIF) Click here for additional data file.

AhR [2] = tested on: AhR
Procedure: The AhR reporter gene assay was performed as previously described (20–22).
B) Hepa1 cells expressing endogenous AhR were transfected with a XRE-luciferase reporter gene. […] The mean luciferase activity is shown with SEM. C) Dose response curves for the competitive inhibition of [^3H] 3-MC binding to AhR.
3-methylcholanthrene (3-MC) to AhR (Fig. 5C).

AhR [3] = experiment: Cytosol to nuclear translocation of AhR in Hepa-1 cells; assay type: cell-based, mouse; conditions: 10 nM, 1 h
Foxp3 = experiment: Lymph node gene expression (RT-qPCR) during the GVH response; assay type: in vivo, B6D2F1 host mice; conditions: any dose (0.4, 2 or 10 mg/kg/day), lymph nodes, 48 h
Procedure: RNA was isolated from lymph nodes of B6D2F1 host mice with the RNeasy Mini Kit (Qiagen). cDNA was prepared from at least 1 µg RNA in a 2-step reaction using the ReactionReady First Strand cDNA synthesis kit (SA Biosciences) according to the manufacturer’s instructions and Superscript III reverse-transcriptase (Life Technologies). The qPCR reaction was carried out on an ABI PRISM 7500 Real-Time PCR system (Applied Biosystems). The reaction mixture consisted of SYBR Green/ROX qPCR Master Mix (SA Bioscience), 2–10 ng-RNA equivalent cDNA and 1 µl of the gene-specific commercial primer sets (SA Biosciences). The following conditions were used: 10 min at 95°C (1 cycle), 15 s at 95°C and 1 min at 60°C (40 cycles). […] The raw data was normalized to Actb and the fold-change was calculated by the ΔΔCt method using vehicle-treated sample values as the control.
Figure 3 10-Cl-BBQ induces an AhR-dependent Treg phenotype 48 h after initiating the GVH response. […] E) In the same mice as in D, lymph nodes were harvested and analyzed for expression of genes that were previously shown to increase under the same GVH conditions with TCDD treatment (13). […] Changes in gene expression were calculated relative to the β-actin gene, and the fold-induction was calculated by the ΔΔCt method using the vehicle-treated samples as a control. * = p<0.05 relative to vehicle treatment. […]

CYP1A1 mRNA = experiment: Hepatic CYP1A1 mRNA induction after single i.p. dose; assay type: in vivo, C57BL/6 mice; conditions: 10 mg/kg i.p.
Procedure: RNA was isolated from lymph nodes of B6D2F1 host mice with the RNeasy Mini Kit (Qiagen). cDNA was prepared from at least 1 µg RNA in a 2-step reaction using the ReactionReady First Strand cDNA synthesis kit (SA Biosciences) according to the manufacturer’s instructions and Superscript III reverse-transcriptase (Life Technologies). The qPCR reaction was carried out on an ABI PRISM 7500 Real-Time PCR system (Applied Biosystems). The reaction mixture consisted of SYBR Green/ROX qPCR Master Mix (SA Bioscience), 2–10 ng-RNA equivalent cDNA and 1 µl of the gene-specific commercial primer sets (SA Biosciences). The following conditions were used: 10 min at 95°C (1 cycle), 15 s at 95°C and 1 min at 60°C (40 cycles). The melt-curve was generated at 95°C for 15 s. The process was validated by utilizing a no-reverse-transcriptase control. The raw data was normalized to Actb and the fold-change was calculated by the ΔΔCt method using vehicle-treated sample values as the control.
Figure 2 Pharmacokinetics of 10-Cl-BBQ. C57BL/6 mice were given 10 mg/kg 10-Cl-BBQ by i.p. injection. A) Blood was collected at the indicated times by cardiac puncture. The serum was processed to remove protein and the samples were analyzed by QTRAP 4000 LC/MS/MS. The serum concentration of 10-Cl-BBQ was determined from a standard curve based on known concentrations of 10-Cl-BBQ. B) Liver tissue was harvested and processed for mRNA analysis. CYP1A1 gene expression was determined relative to the β-actin gene, and the fold-induction was determined by the ΔΔCt method using the vehicle-treated samples as a control. The mean values are shown with SEM for 2–3 mice per time point.

With `O=c1c2cccc3cccc(c32)c2nc3ccc(Cl)cc3n12` [10-Cl-BBQ, 10-chloro-7H-benzimidazo[2,1-a]benzo[de]isoquinolin-7-one] the “DNA binding of AhR (XRE)” value (AhR [1]) was “specifically induced DNA binding of AhR”, the “proliferation of activated T cells in vivo” value (CD4+ T cells) was “did not inhibit proliferation” and the IC50 (AhR [2]) was 2.6 nM. The “cytosol to nuclear translocation of AhR” value (AhR [3]) was “promoted cytosol to nuclear translocation of AhR”, the “expression of Foxp3” value (Foxp3) was “did not induce expression of Foxp3” and the “Cyp1a1 mRNA induction in hepatic tissue” value (CYP1A1 mRNA; 4 hours) was 2 fold. The “Cyp1a1 mRNA induction in hepatic tissue” value (CYP1A1 mRNA; 20 hr) was “up to 7 fold” and the “Cyp1a1 mRNA induction in hepatic tissue” value (CYP1A1 mRNA; 48 h) was “no longer apparent”.
